pIC50: −log10 of the molar value.
Biological target: T1, Neuropeptide Y receptor type 1 (Homo sapiens, UniProt P25929)
T1 sequence (P25929 whole entry): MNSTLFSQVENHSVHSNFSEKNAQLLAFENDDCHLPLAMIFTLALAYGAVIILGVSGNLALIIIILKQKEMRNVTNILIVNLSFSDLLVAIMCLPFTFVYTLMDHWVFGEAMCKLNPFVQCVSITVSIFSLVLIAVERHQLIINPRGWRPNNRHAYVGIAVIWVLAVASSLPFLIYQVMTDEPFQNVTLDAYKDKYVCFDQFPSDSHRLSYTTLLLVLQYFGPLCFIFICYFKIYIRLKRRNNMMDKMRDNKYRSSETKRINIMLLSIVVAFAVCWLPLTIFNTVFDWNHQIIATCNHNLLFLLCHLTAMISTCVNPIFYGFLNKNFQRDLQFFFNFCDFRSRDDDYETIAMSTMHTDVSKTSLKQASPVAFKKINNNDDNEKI
Test: ChEBML_143683
Text: Binding affinity against Neuropeptide Y receptor type 1 using I-PYY as a radioligand in human neuroblastoma SK-N-MC cells

pIC50 | Compound
< 6.00 | COC(=O)C1=C(C)N=C(C)C(C(=O)OC)N1c1cccc(NC(=S)NCCCN2CCN(C3CCCCC3)CC2)c1 (configuration not stated) [1-(3-{3-[3-(4-Cyclohexyl-piperazin-1-yl)-propyl]-thioureido}-phenyl)-3,5-dimethyl-1,4-dihydro-pyrazine-2,6-dicarboxylic acid dimethyl ester]
< 6.00 | COC(=O)C1=C(C)N=C(C)C(C(=O)OC)N1c1cccc(NC(=S)NCCCN2CCC(C(C)(C)C)CC2)c1 (configuration not stated) [1-(3-{3-[3-(4-tert-Butyl-piperidin-1-yl)-propyl]-thioureido}-phenyl)-3,5-dimethyl-1,4-dihydro-pyrazine-2,6-dicarboxylic acid dimethyl ester]

— BindingDB's records for doi:10.1016/s0960-894x(01)00765-x (Bristol Myers Squibb, 2002)
